The values that follow are results of earlier work, collected in patent US20200146297A1, “FAST SYMPTOM HERBICIDAL COMPOSITIONS CONTAINING AN ORGANO[…], BI[…] A[…] SURFACTANT” (Monsanto Technology LLC, priority 2016, published 2020).

One data set deals with plant. The conditions noted are these: after treatment.
The conditions of data set [1]: known to decompose.

As to `O=C(O)CNCP(=O)(O)O` [glyphosate, N-(phosphonomethyl)glycine], the “time until visual symptoms of treatment appear” value in the data set with plant is “one week or more”. For `c1cc[n+]2c(c1)-c1cccc[n+]1CC2` [Diquat dibromide], in data set [1], the “pH at which decomposition occurs” value is listed as “greater than 7”.
